The experiment deals with T1, human CGRP receptor (Homo sapiens, UniProt O60894+Q16602).
T1 construct: SK-N-MC endogenously expressing the human CGRP receptor; endogenous in cells; host or cells: SK-N-MC human neuroblastoma cells
In words: cAMP functional assay (HTRF cAMP dynamic-2) in SK-N-MC cells. The format is cell-based. The following applies: SK-N-MC cells endogenously expressing human CGRP receptor; challenge with EC80 human CGRP (0.3 nM); functional pKb converted from pIC50 by modified Cheng-Prussoff equation. On the procedure:
Biological Activity cAMP Functional Assay
cAMP production following receptor activation was determined using the Homogeneous Time-Resolved Fluorescence (HTRF) cAMP dynamic-2 assay (Cisbio, France). The human neuroblastoma cell line SK-N-MC endogenously expressing the human CGRP receptor was seeded at a density of 12,500 cells/well in solid walled 96 well half area plates (Costar, Catalog Number 3688, Corning Life Sciences, Germany). After 16 h incubation at 37° C. media was removed and cells were incubated at 37° C. for 30 min in serum free media containing 500 μM IBMX (Tocris, Abingdon, UK, Catalog Number 2845) and increasing concentrations of test antagonist. Following this cells were challenged with an EC80 concentration of human CGRP (0.3 nM) for a further 30 min at 37° C. and then cAMP production was determined as manufacturer's instructions before plates were read on a PheraStar fluorescence plate reader (BMG LabTech, Germany). IC50 values were derived from the inhibition curve. The pIC50 values (where pIC50=−log 10 IC50) were converted to a functional pKb value using a modified Cheng-Prussoff equation where Kd=agonist EC50 and L hot=agonist challenge concentration. The pKb values of certain compounds of the invention are detailed in Table 4.
On the technique in general: TR-FRET usually uses a lanthanide donor and a delayed reading to cut background.

We go through 8 compounds from patent US12344621B2, “CGRP antagonist compounds” (Nxera Pharma UK Limited, priority 2019, dated 2025).

T1 sequence (Q16602 23-461): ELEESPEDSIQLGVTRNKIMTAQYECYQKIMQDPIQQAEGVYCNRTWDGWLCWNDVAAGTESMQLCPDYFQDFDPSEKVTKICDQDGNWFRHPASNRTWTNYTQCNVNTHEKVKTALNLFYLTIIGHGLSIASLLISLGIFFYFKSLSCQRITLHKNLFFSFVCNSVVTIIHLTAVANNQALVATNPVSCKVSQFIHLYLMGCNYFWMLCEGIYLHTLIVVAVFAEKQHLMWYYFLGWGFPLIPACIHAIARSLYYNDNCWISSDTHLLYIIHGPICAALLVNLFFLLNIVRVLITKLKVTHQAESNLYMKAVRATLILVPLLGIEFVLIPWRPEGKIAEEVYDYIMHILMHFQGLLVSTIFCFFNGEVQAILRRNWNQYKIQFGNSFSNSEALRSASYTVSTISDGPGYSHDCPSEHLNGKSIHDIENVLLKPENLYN
T1 sequence (O60894 27-148): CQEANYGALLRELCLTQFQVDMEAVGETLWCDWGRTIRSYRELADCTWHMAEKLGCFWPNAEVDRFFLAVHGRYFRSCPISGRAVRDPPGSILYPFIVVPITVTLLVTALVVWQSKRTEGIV

In the case of `Cc1cc(C[C@H]2NC(=O)c3cc4c(cn3)C[C@@]3(C4)C(=O)Nc4ncc(cc43)/C=C/COCCOCCN(C)C2=O)cc2cn[nH]c12` [Example 2-2, (1R,10R,20E)-12-methyl-10-[(7-methyl-1H-indazol-5-yl)methyl]-15,18-dioxa-6,9,12,24,26-pentazapentacyclo[20.5.2.11,4.13,7.025,28]hentriaconta-3,5,7(30),20,22(29),23,25(28)-heptaene-8,11,27-trione], the Kb was 0.794 nM.
The figure for `Cc1cc(C[C@H]2NC(=O)c3cc4c(cn3)C[C@@]3(C4)C(=O)Nc4ncc(cc43)/C=C/CN(C)CCCCCN(C)C2=O)cc2cn[nH]c12` [Example 2-3, (1R,10R,20E)-12,18-dimethyl-10-[(7-methyl-1H-indazol-5-yl)methyl]-6,9,12,18,24,26-hexazapentacyclo[20.5.2.11,4.13,7.025,28]hentriaconta-3,5,7(30),20,22(29),23,25(28)-heptaene-8,11,27-trione] is 1.26 nM.
The figure for `Cc1cc(C[C@H]2NC(=O)c3cc4c(cn3)C[C@]3(C4)C(=O)Nc4ncc(cc43)/C=C/COCCOCCN(C)C2=O)cc2cnn(C)c12` [Example 2-4, (1S,10R,20E)-10-[(1,7-dimethylindazol-5-yl)methyl]-12-methyl-15,18-dioxa-6,9,12,24,26-pentazapentacyclo[20.5.2.11,4.13,7.025,28]hentriaconta-3,5,7(30),20,22(29),23,25(28)-heptaene-8,11,27-trione] is 25.1 nM; for `Cc1cc(C[C@H]2NC(=O)c3cc4c(cn3)C[C@@]3(C4)C(=O)Nc4ncc(cc43)/C=C/COCCOCCN(C)C2=O)cc2cnn(C)c12` [Example 2-5, (1R,10R,20E)-10-[(1,7-dimethylindazol-5-yl)methyl]-12-methyl-15,18-dioxa-6,9,12,24,26-pentazapentacyclo[20.5.2.11,4.13,7.025,28]hentriaconta-3,5,7(30),20,22(29),23,25(28)-heptaene-8,11,27-trione] it is 0.501 nM; for `Cc1cc(C[C@H]2NC(=O)c3cc4c(cn3)C[C@@]3(C4)C(=O)Nc4ncc(cc43)/C=C/COCCCCCN(C)C2=O)cc2cnn(C)c12` [Example 2-6, (1R,10R,20E)-10-[(1,7-dimethylindazol-5-yl)methyl]-12-methyl-18-oxa-6,9,12,24,26-pentazapentacyclo[20.5.2.11,4.13,7.025,28]hentriaconta-3,5,7(30),20,22(29),23,25(28)-heptaene-8,11,27-trione] it is 0.794 nM.
The value for `Cc1cc(C[C@H]2NC(=O)c3cc4c(cn3)C[C@@]3(C4)C(=O)Nc4ncc(cc43)/C=C/COCCCCN(C)C2=O)cc2cnn(C)c12` [Example 2-7, (1R,10R,19E)-10-[(1,7-dimethylindazol-5-yl)methyl]-12-methyl-17-oxa-6,9,12,23,25-pentazapentacyclo[19.5.2.11,4.13,7.024,27]triaconta-3,5,7(29),19,21(28),22,24(27)-heptaene-8,11,26-trione] was 1 nM; that for `Cc1cc(C[C@H]2NC(=O)c3cc4c(cn3)C[C@@]3(C4)C(=O)Nc4ncc(cc43)/C=C/CN(C)CCCCCN(C)C2=O)cc2cnn(C)c12` [Example 2-8, (1R,10R,20E)-10-[(1,7-dimethylindazol-5-yl)methyl]-12,18-dimethyl-6,9,12,18,24,26-hexazapentacyclo[20.5.2.11,4.13,7.025,28]hentriaconta-3,5,7(30),20,22(29),23,25(28)-heptaene-8,11,27-trione] was 2 nM.
`Cc1cc(C[C@H]2NC(=O)c3cc4c(cn3)C[C@@]3(C4)C(=O)Nc4ncc(cc43)/C=C/COCCN(C)CCN(C)C2=O)cc2cnn(C)c12` [Example 2-9, (1R,10R,20E)-10-[(1,7-dimethylindazol-5-yl)methyl]-12,15-dimethyl-18-oxa-6,9,12,15,24,26-hexazapentacyclo[20.5.2.11,4.13,7.025,28]hentriaconta-3,5,7(30),20,22(29),23,25(28)-heptaene-8,11,27-trione]: the Kb is 1.26 nM.
